Source: patent US20120122991A1, “METHOD FOR TREATING CANCER BY INCREASING AMP-ACTIVATED KINASE ACTIVITY” (Dana-Farber Cancer Institute, Inc., priority 2003, published 2012)

Columns and labels:
AMPK = test: Immunoblot of phospho-Thr172 AMPK and phospho-Ser79 ACC in MEFs; assay type: cell-based, mouse; conditions: 2 mM AICAR for 2 h
Description: FIG. 3a: Littermate MEFs of the indicated LKB1 genotypes were left untreated (NT) or treated with 0.1 mM H2O2 for 20 mins or 2 mM AICAR for 2 h. Total cell extracts were immunoblotted for phospho-Thr 172 AMPK or phospho Ser79 ACC, as well as for total AMPK and LKB1. FIG. 3b: An immortalized LKB1-deficient MEF cell line was reconstituted with human (hu) or mouse (ms) WT or KD LKB1 expressing retroviruses. The asterisk (*) represents a background band that serves as a loading control.
(§1) FIG. 6A: Subconfluent cycling littermate-matched primary MEFs of the indicated genotype were left untreated (NT) or were treated with 2 mM AICAR for 2 h. Total cell extracts were immunoblotted for phospho-Thr172 AMPK (P-AMPK), phospho Ser79 ACC (P-ACC), phospho-Thr389 S6K1 (P-S6K1), phospho-Ser9 GSK-3b (P-GSK-3), and phospho-Ser235/236 S6 ribosomal protein (P-S6). FIG. 6B: An immortalized LKB1−/− MEF cell line was reconstituted with vector (v), wild-type (wt) or kinase-dead (kd) human LKB1-expressing retroviruses. Cells were treated as in FIG. 6A. eIF4E was used as a loading control. *represents a cross-reactive band with the anti-LKB1 antisera as characterized previously (Shaw et al. (2004) Proc. Natl. Acad. Sci. USA 101, 3329-3335). FIG. 6C: Endogenous 5′ cap complexes were isolated from LKB1 primary MEFs as in A. 10% of the total cell lysate is shown in the left panels; cap complexes purified on 7-methyl sepharose are shown in right panels. Each were immunoblotted with total 4E-BP1 and eIF4E antibodies. eIF4E is shown as a loading control. FIG. 6D: Hela cells (which are LKB1-deficient) were transiently transfected with vector, FLAG-tagged wild-type, or kinase-dead LKB1 along with an HA-tagged S6K1 or an HA-tagged 4E-BP1 construct, then treated where indicated with 2 mM AICAR for 2 h. S6K1-immunoprecipitates were immunoblotted for activating phosphorylation of S6K1 as before, as well with anti-HA to control for levels. Lysates were immunoblotted with anti-FLAG to detect levels of LKB1 and with anti-HA to detect phosphorylation induced changes in 4E-BP1 mobility on SDS-PAGE.
Kinase Assays and Cellular Analysis: AMPK kinase activity was measured using the SAMS peptide as previously described (7). LKB1 phosphorylation of AMPK was carried out in kinase buffer (50 mM Tris pH 7.5, 10 mM MgCl2, 1 mM DTT, 100 μM ATP) for 20 mins at 30° C. For immunopreciptations of active LKB1 kinase, Flag-tagged LKB1 was co-transfected with an equimolar amount of STRAD expression plasmid into HT1080 cells and immunoprecipitated using M2-agarose (Sigma) 24 h post-transfection in NP40 lysis buffer26. Before kinase assays, immunoprecipitated LKB1 was washed 3× in lysis buffer then 2× in kinase buffer. Soluble MBP-AMPK was added at 5 μg per kinase reaction. […]

mTOR signaling = mTOR signaling (S6K1, 4E-BP1 phosphorylation) in transfected HeLa cells; assay type: cell-based, human; conditions: HeLa cells with wild-type LKB1, 2 mM AICAR for 2 h
Description: as §1, with “S6K1-immunoprecipitates were immunoblotted for activating phosphorylation of S6K1 as before, as well with anti-HA to control for levels. Lysates were immunoblotted with anti-FLAG to detect levels of LKB1 and with anti-HA to detect phosphorylation induced changes in 4E-BP1 mobility on SDS-PAGE.” left out

In the case of NC(=O)c1ncn([C@@H]2O[C@H](CO)[C@@H](O)[C@H]2O)c1N [AICAR, 5-aminoimidazole-4-carboxamide 1-β-D-ribofuranoside], the “Thr172 phosphorylation of AMPK” value (AMPK; LKB1 null MEFs) is reported as “complete loss of Thr172 phosphorylation”, the “phosphorylation of ACC (Ser79)” value (AMPK; LKB1 null MEFs) is reported as “nearly abolished” and the AMPK activation (AMPK; Lkb1-deficient fibroblasts) is reported as “severely attenuated”. The AMPK activation (AMPK; wild-type MEFs) was “activated” and the “S6K1 and 4E-BP1 phosphorylation” value (mTOR signaling) was “inhibition”.
